The test system of assay [1] is B57BL6 Mice. Description: Anti-AAV9 titer analysis in mice given AAV9 with OPLT or liposomal OBLT (Example 3). The class given is in vivo. On the procedure:
(§1) OPLT and OBLT were dissolved in sterile PBS, and pH was adjusted to approximately 7.5. Liposomal OBLT was prepared using […]. AAV9 in PBS was used as a control. For treatment, AAV9 was co-mixed with OPLT or liposomal OBLT before administration, as per group assignment for each animal. AAV9 was administered with 5 mg of OPLT SC QW, 50 μg OBLT SC QW as liposomal OBLT or 7.2 μg OBLT PO QD as liposomal OBLT. For all SC groups, AAV9 was dosed at 10^6 particles/injection. For PO groups, AAV9 was dosed at 1.43×10^5 particles/injection.
(§2) Animals were injected with AAV9, AAV9+OPLT, or AAV9+liposomal OBLT SC QW for 4 weeks. Blood samples were collected for anti-AAV9 titer analysis after a one-week washout period from the last dose. For oral tolerance, animals were administered AAV9 or AAV9+liposomal OBLT PO, QD for 4 weeks. AAV9 was also administered SC QW to both groups during the treatment period. Blood samples were collected for anti-AAV9 titer analysis after a one-week washout period from the last dose.

The next assay relates to Splenocytes. The experiment in a line: Splenocyte culture with anti-CD3/anti-CD28 without antigen, Foxp3+/CD4+ by flow cytometry (Example 4). The class given is cell-based. The settings on record: 100 μM, three days, anti-CD3/anti-CD28, absence of any antigen. The method, then: Splenocytes were cultured for three days in presence of anti-CD3/anti-CD28 in presence of 100 μM PS or 100 μM OPLT in absence of any antigen.
(A flow cytometer gives signals particle by particle.)

In a further assay the test system is FoxP3+/CD4+ T-cell. Description: Ex vivo flow cytometry of splenocytes for FoxP3+/CD4+ T-cells after AAV9 treatment period (Example 3). It is filed as in vivo, mice. To be noted: SC QW 4 weeks with AAV9; OPLT 5 mg, liposomal OBLT 50 μg OBLT; one animal per group. On the procedure: as §1, §2
One week after the last dose, one animal from each group was selected at random for ex-vivo analysis of the T-cell population. Spleens were collected and a single-cell suspension was prepared for cellular phenotyping by flow cytometry. Cells were stained and gated for CD4+ T-cells. FoxP3 expression level was evaluated for each animal.

Assay [2] has as its system RAW264.7 mouse monocyte macrophage cells. The experiment in a line: SAR screen in RAW 264.7 cells with FVIII antigen, TGF-β ELISA (Example 5). The class given is cell-based. To be noted: free compounds dosed in mM range. From the text: (§3) RAW264.7 mouse monocyte macrophage cells were exposed to an increasing concentration of selected compounds in the presence of human plasma-derived FVIII as a model antigen protein. TNF-α and TGF-β production were monitored.
All molecules were formulated in RPMI media in aseptic conditions. The pH was adjusted to approximately 7.5 before dosing cells. 1,2-dimyristoyl-sn-glycero-3-phosphocholine (DM PC):PS liposomes were made at 70:30 molar ratio to make “PS” liposomes. The remaining liposomes were made by hydrating a DMPC lipid layer in PBS buffer containing a test compound to give a final molar ratio of 70:30 of DMPC:test compound.
(§4) RAW 264.7 cells were prepared, cultured, and dosed. Cells were seeded at 4×10^5 cells/well. OPLS, OPLT and L-homocysteic acid (LHA) were dosed at 100, 85, 70, 60, 50, 30, 10, 3, 1, 0.3, 0.1, 0.03 and 0.01 mM, or at 100, 85, 70, 60, 50, 30, 10, 3 and 1 mM, as indicated. O-Benzyl-L-serine (OBLS), S-phenyl-L-cysteine (SPLC), S-benzyl-L-cysteine (SBLC) and OBLT were dosed at 100, 85, 70, 60, 50, 30, 10, 3, 1, 0.3, 0.1, 0.03, 0.01, 0.003 and 0.001 μM. Finally, 100 μl of 40 μg/ml of FVIII as a sample antigen was added to each cell. LPS and free protein were used as positive and baseline controls, respectively. TNF-α and TGF-β ELISA were conducted as per the manufacturer's instructions (R & D Systems).
On the technique in general: ELISA stands for enzyme-linked immunosorbent assay.

The test system of assay [3] is B57BL6 Mice. Description: Anti-GAA titer analysis in mice given GAA with OPLT or liposomal OBLT, then GAA re-challenge (Example 2). The class given is in vivo. The method, then: OPLT and OBLT were dissolved in sterile PBS, and pH was adjusted to approximately 7.5. Liposomal OBLT was prepared using DMPC. GAA in PBS was used as a control. For the tolerance induction (or treatment) period, GAA was co-mixed with OPLT or liposomal OBLT, or diluted in PBS before administration as per group assignment for each animal. For the re-challenge protocol, GAA was administered IV alone to all animals regardless of group assignment. GAA was administered with 5 mg of OPLT SC QW. […] For all SC groups, GAA was dosed at 1 μg/injection (1 μg/week). For PO groups, GAA was dosed at 0.14 μg/dose QD (approximately 1 μg/week).
The objective of the treatment phase was to test the ability of OPLT or liposomal OBLT to reduce the immunogenicity of GAA, as an antigen, compared to animals administered GAA alone. Animals were injected with GAA, GAA+OPLT, or GAA+liposomal OBTL SC QW for 4 weeks. Blood samples were collected for anti-GAA analysis after a one-week washout period from the last dose. For oral tolerance, animals were administered GAA or GAA+liposomal OBLT PO, QD for 4 weeks. GAA was also administered SC QW to both groups during the treatment period. Blood samples were collected for anti-GAA titer analysis after a one-week washout period from the last dose.
The objective of the re-challenge phase of the study was to evaluate the duration of tolerance. […] After the washout period, animals were injected with (1 μg) GAA SC QW for 2 weeks. Blood samples were collected one week after each injection for anti-GAA titer analysis.

The subject of assay [4] is RAW264.7 mouse monocyte macrophage cells. Description: SAR screen in RAW 264.7 cells with FVIII antigen, TNF-α ELISA (Example 5). To be noted: free compounds dosed in mM range, FVIII antigen. The class given is cell-based.
Text: as §3
All molecules were formulated in RPMI media in aseptic conditions. The pH was adjusted to approximately 7.5 before dosing cells. 1,2-dimyristoyl-sn-glycero-3-phosphocholine (DM PC):PS liposomes were made at 70:30 molar ratio to make “PS” liposomes.
as §4

Entries after “also recorded” stand apart in the source; their conditions may differ.

Consider `N[C@@H](Cc1ccc(OP(=O)(O)O)cc1)C(=O)O` [OPLT, O-phospho-L-tyrosine], for which the “anti-AAV9 immune response/titers versus AAV9 alone control” value in the assay with B57BL6 Mice [1] (SC QW 4 weeks) is recorded as “did not elicit an immune response”. The “animals that developed measurable anti-AAV9 antibodies” value with B57BL6 Mice [1] (SC QW 4 weeks with AAV9, after one-week washout, AAV9 SC control 8/8) is 0/8. In addition, the “increase in Foxp3+/CD4+ compared to control” value in the assay with Splenocytes turned out to be 118%. Besides, the “increase in FoxP3+/CD4+ compared to the untreated group” value in the assay on FoxP3+/CD4+ T-cell was determined as 122%. Moreover, the “TGF-β production versus OPLS” value in assay [2] was “mimicked that of OPLS; also recorded: more potent inducers of TGF-β”. For the same molecule, the “animals that developed anti-GAA titers” value in the assay with B57BL6 Mice [3] (SC QW 4 weeks, 5 mg OPLT + GAA 1 μg, after one-week washout, controls 6/6) was 4/6. Also, the “anti-GAA titers versus control groups” value with B57BL6 Mice [3] (SC QW 4 weeks, OPLT 5 mg, liposomal OBLT 50 μM (1.3 μg OBLT/injection), after one-week washout) is “statistically lower than the controls and comparators”. Also, the “immune response to GAA re-challenge” value with B57BL6 Mice [3] (SC treatment group, weeks 1 and 2 of re-challenge, statistically significant at week 2 only) is “did not develop a robust immune response”. Further, in assay [4], the “TNF-α production (suppression) versus OPLS” value is “suppressed TNF-α production at a lower dose than OPLS; also recorded: more potent inhibitors of TNF-α”.

Source of the values: patent US20240173389A1, “Compositions and Methods For Reducing Immune Intolerance” (LAPIX THERAPEUTICS, INC., priority 2021, published 2024).
